# Data published in ChEMBL document CHEMBL1201862, “PubChem BioAssay data set” (2004).
#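 All cell lines were grown in 96-well plates and treated with compound for 48 hours. Abbreviation: GI50, concentration required for 50% inhibition of growth.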 Activity calls are given as the source filed them. No stated cut-off is given here; in the data, active = GI50 up to about 1.1 µM and inactive = higher.
# How the values were obtained:
# Assay in all cases: DTP human tumour cell line panel, 48 h
# RXF 631 = system: RXF 631
# 786-0 = system: 786-0
# HOP-18 = system: HOP-18
# LXFL 529 = system: LXFL 529
# XF498 = system: XF498
# SNB-78 = system: SNB-78
# Hs-578T = system: Hs-578T
# BT-549 = system: BT-549
# MDA-MB-231 = system: MDA-MB-231
SMILES,GI50 (RXF 631),GI50 (786-0),GI50 (HOP-18),GI50 (LXFL 529),GI50 (XF498),GI50 (SNB-78),GI50 (Hs-578T),GI50 (BT-549),GI50 (MDA-MB-231)
[O-][S+]1[C@H](c2ccccc2)c2c(-c3ccccc3)sc(-c3ccccc3)c2[C@@H]1c1ccccc1 (some centres not stated),39 µM (inactive),29.3 µM (inactive),11.4 µM (inactive),> 100 µM (inactive),,,,,
CCOc1ccc2nc(NC(=O)C(=O)C(C(=O)c3ccccc3F)C3OC(=O)c4ccccc43)sc2c1 (configuration not stated),14.5 µM (inactive),,,19.7 µM (inactive),24.1 µM (inactive),17.5 µM (inactive),,,
O=C1C2=C(c3ccccc31)C(c1ccccc1Cl)N1C(=O)CSC1=N2 (configuration not stated),> 100 µM (inactive),> 100 µM (inactive),,74.3 µM (inactive),64 µM (inactive),,,,
CC(=O)O[C@@H]1CN(S(=O)(=O)c2ccc(C)cc2)C[C@@H]1C1CCCCC1,,,,,,,11.5 µM (inactive),,
Cn1c(=O)c2nc(N3CCCCC3)cnc2n(C)c1=O,,,,> 100 µM (inactive),> 100 µM (inactive),,,,
O=C(O)CN1CCN(CC(=O)O)CCN(CC(=O)O)CC1,,,,,,,> 100 µM (inactive),> 100 µM (inactive),> 31.9 µM (inactive)
CO[C@H]1ON=C(c2c(C)cc(C)cc2C)[C@@H]1C1(c2ccccc2)ON=C(c2c(C)cc(C)cc2C)O1 (some centres not stated),,,> 100 µM (inactive),> 100 µM (inactive),,> 100 µM (inactive),,,
C=CCn1c(=O)c(C(=O)Nc2nc(C34CC5CC(CC(C5)C3)C4)cs2)c(O)c2ccccc21,,39.8 µM (inactive),,,,,32.4 µM (inactive),24.4 µM (inactive),22 µM (inactive)
C#CC[N+](CCO)(CCO)CCCCCCCCCCCCCCCCCC,,,9.33 µM (inactive),,4.43 µM (inactive),6.53 µM (inactive),,,
O=C(O)c1ccc([N+](=O)[O-])c2cc3cnccc3nc12,,,,,,,35 µM (inactive),19.1 µM (inactive),19.4 µM (inactive)
CC(C)(C)OC(=O)NC1CCC(C(C)(C)C)CC1 (configuration not stated),,,> 82.8 µM (inactive),,> 52.2 µM (inactive),> 100 µM (inactive),,,
C=C(/C=C/C=C(\C)CCC=C(C)C)[C@@H]1CC[C@]2([C@H](CCCO)/C(=C(/C)C=O)CC[C@]2(C)O)[C@@H]1O,,,23.9 µM (inactive),19.1 µM (inactive),18.7 µM (inactive),17.7 µM (inactive),,,
C=CCNC(=O)CN(CC(=O)OC)C1CCCCC1N(CC(=O)OC)CC(=O)OC (configuration not stated),,,,,,,> 100 µM (inactive),> 100 µM (inactive),> 100 µM (inactive)
NC(CSC1(c2ccc(Cl)cc2)c2ccccc2-c2ccccc21)C(=O)O (configuration not stated),,20.8 µM (inactive),,,,,18.2 µM (inactive),18.2 µM (inactive),18 µM (inactive)
O=C(Nc1cccc2ccccc12)Oc1ccccc1C1CCCCC1,19.5 µM (inactive),,16.3 µM (inactive),18.3 µM (inactive),,23.4 µM (inactive),,,
C=C1C(=O)OC2C=C(C)CC3C=C(CCC=C(C)CCC12)C(=O)O3 (configuration not stated),,,51.3 µM (inactive),,,66.4 µM (inactive),,,
O=C1C(Cl)N(c2ccccc2Cl)C1c1c[nH]c2ccccc12 (configuration not stated),,,,,> 100 µM (inactive),,,,
C/C=C(\C)C(=O)OC1C2C(C)C(=O)OC2C(O)C(C)C2C=CC(=O)C21C (configuration not stated),,12.1 µM (inactive),,,,,13.3 µM (inactive),7.5 µM (inactive),3.69 µM (inactive)
CC(=O)OC1C(O)C(C)OC(OC(=O)C2CCC3C(C2)OC2(CC(OC(=O)/C=C/c4ccccc4)C(C)CO2)C32CO2)C1OC1OC(C)C(O)C(O)C1O (configuration not stated),,,0.113 µM (active),,0.0504 µM (active),0.0352 µM (active),,,
CC1(C)CC[C@]2(C(=O)O)CC[C@]3(C)C(=CC[C@@H]4[C@@]5(C)CC[C@@H]6OC(C)(C)OC[C@@]6(C)[C@@H]5CC[C@]43C)[C@H]2C1,,10 µM (inactive),,,,,,,3.04 µM (inactive)
C=C(CN(C)C)C(=O)c1ccc(OC2OC(COC(C)=O)C(OC(C)=O)C(OC(C)=O)C2OC(C)=O)cc1 (configuration not stated),14.3 µM (inactive),2.24 µM (inactive),3.54 µM (inactive),1.52 µM (inactive),1.69 µM (inactive),8.93 µM (inactive),19.7 µM (inactive),2.61 µM (inactive),5 µM (inactive)
CC1OC(CO)(n2cnc3c(N)ncnc32)C(O)C1O (configuration not stated),,,> 100 µM (inactive),,> 100 µM (inactive),> 100 µM (inactive),,,
O=c1c2cccnc2oc2c(Cl)cc(-c3nnn[nH]3)cc12,,,,,,,> 100 µM (inactive),,> 100 µM (inactive)
Cc1cn(Cc2cn(CC3OC(n4cc(C)c(=O)[nH]c4=O)CC3O)nn2)c(=O)[nH]c1=O (configuration not stated),,,,,,,> 100 µM (inactive),> 100 µM (inactive),> 100 µM (inactive)
CC(C)(C)OC(=O)NC(Cc1c[nH]cn1)C(=O)N1CCCC1C(N)=O (configuration not stated),,> 100 µM (inactive),,,,,> 100 µM (inactive),> 100 µM (inactive),> 100 µM (inactive)
